Assay [1] deals with T1, Amyloid-beta precursor protein (Homo sapiens, UniProt P05067). Nature of the assay: Inhibition of Amyloid beta (1 to 42) (unknown origin) aggregation at 100 uM incubated for 24 hrs by ThioflavinT-dye based fluorescence analysis.
Assay [2] has as its target T1, Amyloid-beta precursor protein. Nature of the assay: Inhibition of Amyloid beta (1 to 42) (unknown origin) aggregation incubated for 24 hrs by ThioflavinT-dye based fluorescence analysis.
A short description of assay [3]: Metal chelating activity assessed as compound-Fe3+ complex formation incubated for 1 hr by UV-vis spectrophotometric analysis.
Assay [4] in a line: Metal chelating activity assessed as compound-Cu2+ complex formation incubated for 1 hr by UV-vis spectrophotometric analysis.
Assay [5] can be described thus: Metal chelating activity assessed as compound-Zn2+ complex formation incubated for 1 hr by UV-vis spectrophotometric analysis.
The target of assay [6] is T1, Amyloid-beta precursor protein. Nature of the assay: Disaggregation of Fe3+ induced Amyloid beta (1 to 42) (unknown origin) aggregation at 100 uM incubated for 24 hrs by ThioflavinT-dye based fluorescence analysis.

Active and inactive are the calls of the source. No cut-off for these calls is given here.

T1 sequence (P05067 whole entry): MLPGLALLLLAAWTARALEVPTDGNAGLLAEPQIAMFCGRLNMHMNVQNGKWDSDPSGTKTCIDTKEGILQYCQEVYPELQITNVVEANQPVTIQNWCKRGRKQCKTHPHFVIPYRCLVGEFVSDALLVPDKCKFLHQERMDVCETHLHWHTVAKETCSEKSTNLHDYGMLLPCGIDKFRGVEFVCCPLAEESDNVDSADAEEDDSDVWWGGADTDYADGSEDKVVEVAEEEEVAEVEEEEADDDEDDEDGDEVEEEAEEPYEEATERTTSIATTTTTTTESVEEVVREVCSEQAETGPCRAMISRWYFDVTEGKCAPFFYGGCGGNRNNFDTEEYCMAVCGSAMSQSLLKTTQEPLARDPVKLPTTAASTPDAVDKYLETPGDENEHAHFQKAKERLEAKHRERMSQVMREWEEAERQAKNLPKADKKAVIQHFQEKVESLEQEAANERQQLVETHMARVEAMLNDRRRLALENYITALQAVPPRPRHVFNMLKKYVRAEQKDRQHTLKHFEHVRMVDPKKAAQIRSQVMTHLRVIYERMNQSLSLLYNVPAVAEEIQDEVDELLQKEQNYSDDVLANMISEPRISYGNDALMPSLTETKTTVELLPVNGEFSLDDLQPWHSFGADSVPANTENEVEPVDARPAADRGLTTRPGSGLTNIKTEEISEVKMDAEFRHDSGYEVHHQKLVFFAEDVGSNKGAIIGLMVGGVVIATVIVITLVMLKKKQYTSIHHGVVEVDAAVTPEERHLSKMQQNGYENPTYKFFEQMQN

On to `COC(=O)c1c(O)cc(C)c(Sc2c(O)cc(OC)c(Oc3c(O)cc(C)cc3O)c2O)c1C(=O)c1c(O)cc(C)cc1O`, for which the inhibition (commonly the relative decrease from the control value, in per cent) in assay [1] was found to be 85.7%. In addition, the IC50 (usually the concentration that gives 50% inhibition) in assay [2] came to 100 nM. Moreover, the outcome in assay [3], in assay [4], in assay [5] and in assay [6] was Active.
Consider `COc1cc(O)cc(C(=O)O)c1C(=O)c1c(O)cc(CO)cc1O`, for which the inhibition in assay [1] is 73.2%. The molecule further displayed an IC50 in assay [2] of 1070 nM. For the same molecule, the outcome in assay [3], in assay [4], in assay [5] and in assay [6] was Active.
In turn, `O=C(O[C@@H]1Cc2c(O)cc(O)cc2O[C@@H]1c1cc(O)c(O)c(O)c1)c1cc(O)c(O)c(O)c1` [EPIGALOCATECHIN GALLATE] yielded a concentration for half-maximal inhibition (IC50) in assay [2] of 140 nM. In other words, the sub-micromolar range.
In assay [1], `COC(=O)c1cc(O[C@@H]2O[C@H](CO)[C@@H](O)[C@H](O)[C@H]2O)cc(OC)c1C(=O)c1c(O)cc(C)cc1O` had an inhibition of 85.2%. Moreover, in assay [2], half-maximal inhibition (IC50) was put at 4730 nM.
`Cc1cc(O)c(C(=O)c2c(O)cc3c(c2O)C(=O)c2c(O)cc(C)cc2C3=O)c(C(=O)c2cc(O)c(O)cc2O)c1` gave an inhibition in assay [1] of 86.3%. Further, in assay [2], the half-inhibitory concentration (IC50) was determined as 180 nM. Besides, the outcome in assay [3], in assay [4], in assay [5] and in assay [6] was Active.
As to `COC(=O)c1c(O)cc(C)cc1C(=O)c1cc(O)cc2oc3cc4c(c(O)c3c12)C(=O)c1c(O)cc(C)cc1C4=O`, the inhibition in assay [1] was found to be 85.5%. This molecule had an IC50 in assay [2] of 1560 nM.
In turn, `COC(=O)c1cc(O[C@@H]2O[C@H](COC(=O)CCC(=O)O)[C@@H](O)[C@H](O)[C@H]2O)cc(OC)c1C(=O)c1c(O)cc(C)cc1O` showed an inhibition in assay [1] of 64.1%. In assay [2], the half-maximal inhibitory concentration (IC50) was found to be 3010 nM.
The molecule `COC(=O)c1cc(O)cc(OC)c1C(=O)c1c(O)cc(CO[C@H]2O[C@H](CO)[C@@H](O)[C@H](O)[C@H]2O)cc1O` gave an inhibition in assay [1] of 84.5%. Half-maximal inhibition in assay [2] (IC50) was put at 1030 nM. The outcome in assay [3], in assay [4], in assay [5] and in assay [6] was Active.
